The structures appear in SMILES notation. Converted amounts (≈) assume the structure as drawn.

Four compounds from ChEMBL document CHEMBL5352469, “Solubility-driven optimization of benzothiopyranone salts leading to a preclinical candidate with improved pharmacokinetic properties and activity against Mycobacterium tuberculosis” (Eur J Med Chem, 2023) can be followed below.

Series [1] in a line: Aqueous solubility of compound by HPLC-PDA method. To be noted: buffer. In kind it is physicochemical.
A short description of series [2]: Apparent permeability across apical to basolateral side in human Caco-2 cells incubated for 21 days. The note with it: time 21 day. In kind it is ADME, cell-based. A general note: Caco-2 monolayers are a common model of the intestinal barrier.
Series [3] can be described thus: Apparent permeability across basolateral to apical side in human Caco-2 cells incubated for 21 days. It counts as ADME, cell-based. The note with it: time 21 day.
Series [4] in a line: Efflux ratio of apparent permeability across basolateral to apical side over apical to basolateral side in human Caco-2 cells. In kind it is ADME, cell-based.
The nature of series [5]: Elimination half life in Balb/c mouse at 50 mg/kg, po measured upto 24 hrs by LC/MS/MS analysis. To be noted: in vivo, read-out: beta t1/2 (converted). It counts as ADME, organism-based.
Series [6] in a line: Elimination half life in Balb/c mouse at 5 mg/kg, iv measured upto 24 hrs by LC/MS/MS analysis. In kind it is ADME, organism-based. To be noted: in vivo, read-out: beta t1/2 (converted).
A short description of series [7]: Tmax in Balb/c mouse at 50 mg/kg, po measured upto 24 hrs by LC/MS/MS analysis. In kind it is ADME, organism-based. The note with it: in vivo.
Series [8] in a line: Cmax in Balb/c mouse at 50 mg/kg, po measured upto 24 hrs by LC/MS/MS analysis. In kind it is ADME, organism-based. Set-up: time < 24 hrs, dose 50 mg/kg, route po. To be noted: in vivo.
Series [9] is described as follows: Cmax in Balb/c mouse at 5 mg/kg, iv measured upto 24 hrs by LC/MS/MS analysis. It counts as ADME, organism-based. Set-up: dose 5 mg/kg, time < 24 hrs, route iv. The note with it: in vivo.
Series [10] in a line: AUC (0 to t) in Balb/c mouse at 50 mg/kg, po measured upto 24 hrs by LC/MS/MS analysis. It counts as ADME, organism-based. Set-up: dose 50 mg/kg, time < 24 hrs, route po. The note with it: in vivo.
Series [11] is described as follows: AUC (0 to t) in Balb/c mouse at 5 mg/kg, iv measured upto 24 hrs by LC/MS/MS analysis. It counts as ADME, organism-based. More on the design: time < 24 hrs, dose 5 mg/kg, route iv. The note with it: in vivo.
The nature of series [12]: Oral bioavailability in Balb/c mouse at 50 mg/kg measured upto 24 hrs by LC/MS/MS analysis. In kind it is ADME, organism-based. The note with it: in vivo.
The nature of series [13]: Elimination half life in Sprague-Dawley rat at 50 mg/kg, po measured upto 24 hrs by LC/MS/MS analysis. In kind it is ADME, organism-based. To be noted: in vivo, read-out: beta t1/2 (converted).
Series [14] is described as follows: Elimination half life in Sprague-Dawley rat at 5 mg/kg, iv measured upto 24 hrs by LC/MS/MS analysis. It counts as ADME, organism-based. To be noted: in vivo, read-out: beta t1/2 (converted).
A short description of series [15]: Tmax in Sprague-Dawley rat at 50 mg/kg, po measured upto 24 hrs by LC/MS/MS analysis. To be noted: in vivo. It counts as ADME, organism-based.
A short description of series [16]: Cmax in Sprague-Dawley rat at 50 mg/kg, po measured upto 24 hrs by LC/MS/MS analysis. Set-up: time < 24 hrs, dose 50 mg/kg, route po. To be noted: in vivo. It counts as ADME, organism-based.
A short description of series [17]: Cmax in Sprague-Dawley rat at 5 mg/kg, iv measured upto 24 hrs by LC/MS/MS analysis. In kind it is ADME, organism-based. More on the design: time < 24 hrs, dose 5 mg/kg, route iv. The note with it: in vivo.
Series [18] in a line: AUC (0 to t) in Sprague-Dawley rat at 50 mg/kg, po measured upto 24 hrs by LC/MS/MS analysis. Set-up: dose 50 mg/kg, time < 24 hrs, route po. The note with it: in vivo. It counts as ADME, organism-based.
Series [19] can be described thus: AUC (0 to t) in Sprague-Dawley rat at 5 mg/kg, iv measured upto 24 hrs by LC/MS/MS analysis. It counts as ADME, organism-based. More on the design: time < 24 hrs, dose 5 mg/kg, route iv. The note with it: in vivo.
The nature of series [20]: AUC (0 to infinity) in Sprague-Dawley rat at 50 mg/kg, po measured upto 24 hrs by LC/MS/MS analysis. Set-up: time < 24 hrs, dose 50 mg/kg, route po. The note with it: in vivo. It counts as ADME, organism-based.
The nature of series [21]: AUC (0 to infinity) in Sprague-Dawley rat at 5 mg/kg, iv measured upto 24 hrs by LC/MS/MS analysis. In kind it is ADME, organism-based. More on the design: time < 24 hrs, dose 5 mg/kg, route iv. To be noted: in vivo.
A short description of series [22]: MRT (0 to infinity) in Sprague-Dawley rat at 50 mg/kg, po measured upto 24 hrs by LC/MS/MS analysis. It counts as ADME, organism-based. The note with it: in vivo.
A short description of series [23]: MRT (0 to infinity) in Sprague-Dawley rat at 5 mg/kg, iv measured upto 24 hrs by LC/MS/MS analysis. In kind it is ADME, organism-based. The note with it: in vivo.
Series [24] in a line: Clearance in Sprague-Dawley rat at 5 mg/kg, iv measured upto 24 hrs by LC/MS/MS analysis. In kind it is ADME, organism-based. The note with it: in vivo.
The nature of series [25]: Oral bioavailability in Sprague-Dawley rat at 50 mg/kg measured upto 24 hrs by LC/MS/MS analysis. It counts as ADME, organism-based. To be noted: in vivo.
Series [26] can be described thus: Chemical stability of the compound under 4500 +/- 500 lx light condition by measuring compound purity incubated for 10 days by HPLC-PDA method relative to initial purity. It counts as physicochemical. The note with it: 240 h; time 10 day.
Series [27] in a line: Chemical stability of the compound under 60 degree C high temperature by measuring compound purity incubated for 10 days by HPLC-PDA method analysis relative to initial purity. In kind it is physicochemical. The note with it: 240 h; time 10 day.
Series [28] can be described thus: Chemical stability of the compound under 92.5% humidity by measuring compound purity incubated for 10 days by HPLC-PDA method relative to initial purity. It counts as physicochemical. To be noted: 240 h; time 10 day.
Series [29] can be described thus: Lipophilicity, log P of the compound in octanol/water incubated for 72 hrs under shaking condition by shake flask based HPLC-PDA method. It counts as physicochemical. The note with it: 72 h.
Series [30] can be described thus: Lipophilicity, log D of the compound in octanol/water at pH 2.0 incubated for 72 hrs under shaking condition by shake flask based HPLC-PDA method. In kind it is physicochemical. To be noted: pH 2, 72 h.
The nature of series [31]: Lipophilicity, log D of the compound in octanol/water at pH 4.0 incubated for 72 hrs under shaking condition by shake flask based HPLC-PDA method. It counts as physicochemical. To be noted: pH 4, 72 h.
The nature of series [32]: Lipophilicity, log D of the compound in octanol/water at pH 6.8 incubated for 72 hrs under shaking condition by shake flask based HPLC-PDA method. In kind it is physicochemical. The note with it: pH 6.8, 72 h.
A short description of series [33]: Lipophilicity, log D of the compound in octanol/water at pH 7.6 incubated for 72 hrs under shaking condition by shake flask based HPLC-PDA method. It counts as physicochemical. To be noted: pH 7.6, 72 h.
The subject of series [34] is Mycobacterium tuberculosis. Put plainly: Antibacterial activity against Mycobacterium tuberculosis H37Rv BALB/c mouse model assessed as reduction in CFU in lungs at 25 mg/kg via oral gavage for 30 days (reference value: 5.92 +/-0.29). The note with it: time 30 day. It counts as functional.
In series [35] the test system is Mycobacterium tuberculosis. The series can be described thus: Antibacterial activity against Mycobacterium tuberculosis H37Rv BALB/c mouse model assessed as reduction in delta CFU in lungs at 25 mg/kg via oral gavage for 30 days. In kind it is functional. To be noted: time 30 day.

The solubility is the concentration that dissolves in the medium under given conditions. Usually Papp A→B stands for how fast a substance crosses the layer from the apical side. Usually Papp B→A stands for the apparent permeability from the basolateral to the apical side of a cell layer. As a reminder, the efflux ratio is the permeability from basolateral to apical divided by that in the opposite direction, in the common usage. Usually Tmax stands for the time from dosing to the highest level. As usually defined, the Cmax is the maximum level reached in the sampled fluid or tissue. In general, AUC(0-t) refers to exposure summed from dosing to a finite time, without extrapolation to infinity. Read a high AUC(0-t) as high exposure. A word on the AUC(0-inf): it is the area under the concentration-time curve extrapolated to infinity. A lower AUC(0-inf) goes with less exposure. A word on the MRT inf: it is a mean duration of stay, worked out from the concentration-time curve. What is called clearance is the volume of plasma or blood freed of the substance per unit of time. A higher clearance goes with efficient removal. The term bioavailability denotes dose-corrected exposure relative to a reference, in per cent. For orientation: logP means a log measure of how a compound divides between an organic and an aqueous phase. The low end stands for lower lipophilicity, the high end for higher lipophilicity. By logD is commonly meant lipophilicity at a set pH, counting ionised and neutral species. Take `Cl.O=c1cc(N2CCN(CC3CCCCC3)CC2)sc2c([N+](=O)[O-])cc(C(F)(F)F)cc12`: the solubility in [1] (read-out: solubility) stood at 28.1 µg/mL. Besides, the Papp A→B in [2] came to 0.39 ×10⁻⁶ cm/s. Moreover, the Papp B→A in series [3] worked out at 0.14 ×10⁻⁶ cm/s. Besides, the efflux ratio in [4] was 0.36. For the same compound, the half-life in series [5] is 6.72 h; in series [6], 7.59 h; in series [13] it was 5.38 h; in [14], 7.92 h. Further, the time of peak concentration (Tmax) in series [7] is 0.42 h; in series [15], 1.67 h. For the same compound, the highest concentration (Cmax) in series [8] turned out to be 502 ng/mL; in series [9] it was 5990 ng/mL; in [16], 163 ng/mL; in series [17] it was 3490 ng/mL. Further, the figures for the AUCt in [10] (24 h) and in [11] (24 h) were 2251 ng·h/mL and 6434 ng·h/mL, respectively. For the same compound, the F in series [12] (po, 50 mg/kg, 24 h) is reported as 14.1%. The results for the exposure AUC(0-t) at 24 h in series [18] and in series [19] were 961 ng·h/mL and 1890 ng·h/mL, respectively. Further, the AUC(0-inf) in series [20] was found to be 982 ng·h/mL; in series [21], 1940 ng·h/mL. The results for the mean residence time (MRT inf) in [22] and in series [23] were 5.13 h and 2.52 h, respectively. Further, in series [24], the clearance worked out at 43.6 mL/min/kg. In series [25], this compound yielded a bioavailability of 5.07%. The Stability in series [26] stood at 99.8%; in [27], 100%; in series [28] it was 100%. Further, in series [29], the logP was found to be 2.56. The logD is reported as 1.3 in series [30], 3.77 in series [31], above 4.27 in [32] and above 4.29 in series [33].
`O=C(O)/C=C/C(=O)O.O=C(O)/C=C/C(=O)O.O=C(O)/C=C/C(=O)O.O=c1cc(N2CCN(CC3CCCCC3)CC2)sc2c([N+](=O)[O-])cc(C(F)(F)F)cc12.O=c1cc(N2CCN(CC3CCCCC3)CC2)sc2c([N+](=O)[O-])cc(C(F)(F)F)cc12`: the solubility in [1] (read-out: solubility) is 132 µg/mL. The Papp A→B in [2] amounted to 7.79 ×10⁻⁶ cm/s. Besides, in series [3], the Papp B→A stood at 0.11 ×10⁻⁶ cm/s. Also, the half-life in series [5] is 8.03 h; in series [6], 6.98 h. Further, the time of peak concentration (Tmax) in series [7] came to 0.67 h. For the same compound, the Cmax came out at 542 ng/mL in series [8] and 2760 ng/mL in [9]. Further, the exposure AUC(0-t) at 24 h worked out at 3440 ng·h/mL in [10] (Balb/c) and 1990 ng·h/mL in series [11] (Balb/c). The bioavailability in series [12] (Balb/c) turned out to be 18.9%.
Take `NNC(=O)c1ccncc1` [ISONIAZID]: the Activity is 3.64 log10CFU in series [34] and 3.89 log10CFU in series [35].
For `O=c1nc(N2CCN(CC3CCCCC3)CC2)sc2c([N+](=O)[O-])cc(C(F)(F)F)cc12` [MACOZINONE], the solubility in series [1] stood at 0.11 µg/mL (≈ 0.241 µM).
